Results as given in ChEMBL document CHEMBL4321847, “Discovery of 6-(2,4-Dichlorophenyl)-5-[4-[(3S)-1-(3-fluoropropyl)pyrrolidin-3-yl]oxyphenyl]-8,9-dihydro-7H-benzo[7]annulene-2-carboxylic acid (SAR439859), a Potent and Selective Estrogen Receptor Degrader (SERD) for the Treatment of Estrogen-Receptor-Positive Breast Cancer” (J Med Chem, 2020).
The source made the active and inactive calls. The rule behind the calls is not given here.

Legend:
[1] = in vitro; conditions: human, microsomes
Description: Metabolic stability in human liver microsomes assessed as total metabolism

[2] = physchem; conditions: buffer, pH 7.4
Description: Lipophilicity, logD of the compound in phosphate buffer at pH 7.4

[3] = in vitro; conditions: mouse, microsomes
Description: Metabolic stability in mouse microsomes assessed as total metabolism

[4] = in vitro; conditions: rat, microsomes
Description: Metabolic stability in rat microsomes assessed as total metabolism

[5] = in vivo; conditions: mouse
Description: Half life in mouse at 3 mg/kg, iv or 10 mg/kg, po

[6] = in vivo; conditions: dog, iv, 3 mg/kg
Description: Clearance in dog at 3 mg/kg, iv or 10 mg/kg, po

[7] = in vivo; conditions: mouse, iv, 3 mg/kg
Description: Clearance in mouse at 3 mg/kg, iv or 10 mg/kg, po

[8] = in vivo; conditions: mouse, po, 10 mg/kg
[9] = in vivo; conditions: rat
Description: Half life in rat at 3 mg/kg, iv or 10 mg/kg, po

[10] = in vivo; conditions: rat, iv, 3 mg/kg
Description: Clearance in rat at 3 mg/kg, iv or 10 mg/kg, po

[11] = test system: MCF7; conditions: Homo sapiens; as to T/C: time not given here
[12] = in vivo; conditions: dog
Description: Half life in dog at 3 mg/kg, iv or 10 mg/kg, po

[13] = in vivo; conditions: rat, iv, 3 mg/kg; remark: listed apart in the source
Description: Volume of distribution at steady state in rat at 3 mg/kg, iv or 10 mg/kg, po

[14] = in vivo; conditions: dog, po, 10 mg/kg
[15] = in vivo; conditions: rat, po, 10 mg/kg
[16] = in vivo; conditions: mouse, iv, 3 mg/kg; remark: listed apart in the source
Description: Volume of distribution at steady state in mouse at 3 mg/kg, iv or 10 mg/kg, po

[17] = in vivo; conditions: dog, iv, 3 mg/kg; remark: listed apart in the source
Description: Volume of distribution at steady state in dog at 3 mg/kg, iv or 10 mg/kg, po

[18] = test system: MCF7; type: functional, Homo sapiens; conditions: at 25 mg/kg; as to T/C: time not given here

Row | metabolised [1] [%] | logD [2] | metabolised [3] [%] | metabolised [4] [%] | Compound | also measured
1 | 20 | 3.43 | 10 | 2 | O=C(O)c1ccc2c(c1)CCCC(c1ccc(OC(F)(F)F)cc1)=C2c1ccc(O[C@H]2CCN(CCCF)C2)cc1 | –
2 | 10 | 3.46 | 12 | 4 | O=C(O)c1ccc2c(c1)CCCC(c1ccc(SC(F)(F)F)cc1)=C2c1ccc(O[C@H]2CCN(CCCF)C2)cc1 | –
3 | 0 | 2.63 | 5 | 4 | O=C(O)c1ccc2c(c1)CCCC(c1ccccc1Cl)=C2c1ccc(O[C@H]2CCN(CCCF)C2)cc1 | –
4 | 41 | 4.11 | 31 | 53 | Oc1ccc2c(c1)CCCC(c1ccccc1Cl)=C2c1ccc(O[C@H]2CCN(CCCF)C2)cc1 | –
5 | 55 | – | 25 | 48 | Oc1ccc(C2=C(c3ccc(O[C@H]4CCN(CCCF)C4)cc3)c3ccc(O)cc3CCC2)cc1 | –
6 | 70 | 2.11 | 31 | 80 | Oc1ccc2c(c1)CCCC(c1cccnc1)=C2c1ccc(O[C@H]2CCN(CCCF)C2)cc1 | –
7 | 57 | – | 30 | 80 | Oc1ccc2c(c1)C(c1ccc(O[C@H]3CCN(CCCF)C3)cc1)=C(c1ccc(F)cc1Cl)CCC2 | –
8 | 30 | 5.27 | 18 | 17 | Oc1ccc2c(c1)CCCC(c1ccc(Cl)cc1Cl)=C2c1ccc(O[C@H]2CCN(CCCF)C2)cc1 | –
9 | 34 | 4 | 44 | 53 | Oc1ccc2c(c1)CCCC(c1ccccc1)=C2c1ccc(O[C@H]2CCN(CCCF)C2)cc1 | –
10 | 49 | – | 55 | 58 | Oc1ccc(C2=C(c3ccc(O[C@H]4CCN(CCCF)C4)cc3)c3cc(O)ccc3CCC2)cc1 | –
11 | 2 | 2.9 | 15 | 1 | O=C(O)c1ccc2c(c1)CCCC(c1ccc(Cl)cc1)=C2c1ccc(O[C@H]2CCN(CCCF)C2)cc1 | –
12 | 31 | 4.59 | 20 | 44 | Oc1ccc2c(c1)CCCC(c1ccc(F)cc1Cl)=C2c1ccc(O[C@H]2CCN(CCCF)C2)cc1 | –
13 | 70 | 2.11 | 39 | 60 | Oc1ccc2c(c1)CCCC(c1ccncc1)=C2c1ccc(O[C@H]2CCN(CCCF)C2)cc1 | –
14 | 72 | 2.35 | 65 | 74 | Oc1ccc2c(c1)CCCC(c1ccc3[nH]ncc3c1)=C2c1ccc(O[C@H]2CCN(CCCF)C2)cc1 | –
15 | 28 | 2.59 | 0 | 2 | O=C(O)c1ccc2c(c1)CCCC(c1cccc(F)c1Cl)=C2c1ccc(O[C@H]2CCN(CCCF)C2)cc1 | –
16 | 39 | 3.49 | 61 | 75 | Oc1ccc2c(c1)CCCC(c1ccc3[nH]ccc3c1)=C2c1ccc(O[C@H]2CCN(CCCF)C2)cc1 | –
17 | 37 | 4.32 | 41 | 45 | Oc1ccc2c(c1)CCCC(c1cccc(Cl)c1F)=C2c1ccc(O[C@H]2CCN(CCCF)C2)cc1 | –

Row | Compound | metabolised [1] [%] | logD [2] | metabolised [3] [%] | metabolised [4] [%] | also measured
18 | O=C(O)c1ccc2c(c1)CCCC(c1ccc(Cl)cc1Cl)=C2c1ccc(O[C@H]2CCN(CCCF)C2)cc1 [AMCENESTRANT] | 12 | 3.25 | 13 | 4 | half-life [5]: 1.98 h; clearance [6]: 0.5 mL/min/kg; clearance [7]: 32 mL/min/kg; bioavailability [8]: 62%; half-life [9]: 4.13 h; clearance [10]: 3.17 mL/min/kg; TGI [11]: Active; half-life [12]: 9.8 h; Vd [13]: 0.83 L/kg; bioavailability [14]: 54%; bioavailability [15]: 76%; Vd [16]: 6.1 L/kg; Vd [17]: 0.5 L/kg; T/C [18]: -28%
